Measurements published in US5962408A, “Disulphide-cyclo-[H-Cys-Glu-Gln-Tyr-Cys-OH], and its use in blood-clotting disorders” (Nycomed Imaging AS, priority 1994, dated 1999).
“Also recorded” adds a separate entry of the source. Like-named read-outs stand apart in the source and are kept apart here. Positions of bridges follow the written chain, without caps; N, C: chain ends. Residues, ends and D or L forms follow the SMILES beside them.

Assays:
[1] = tested on: TF-dependent arterial thrombogenesis; assay: human ex vivo model of TF-dependent arterial thrombogenesis; details: around 1 mM final peptide/plasma concentration
Protocol: Apart from the ability of the peptide disulphide-cyclo-[H-Cys-Glu-Gln-Tyr-Cys-OH] to inhibit the complex formation between FVIIa and TF in various biochemical assays, we have also found this peptide to be efficacious in a clinically relevant ex vivo model of TF/FVII-dependent arterial human thrombogenesis.
The efficacy of peptides was tested in a human ex vivo model of TF-dependent arterial thrombogenesis, essentially as described (K. S. Sakariassen et al., 1990, Arteriosclerosis, 10, 276; U. .O slashed.rvim et al., 1995, Arterioscl. Thromb. Vasc. Biol., in press). Human non-anticoagulated blood was drawn directly from an antecubital vein and mixed with peptide solution in a heparin-coated mixing device situated proximally to a perfusion chamber which contained a TF-coated coverslip (Thromborel S®). Blood flow was kept at 10 mL/min for 4 minutes, producing a shear rate of 650 s^-1, typical for small arteries.

[2] = molecular target: T1, factor VIIa/tissue factor (Homo sapiens, UniProt P13726); assay: two-stage chromogenic assay of factor VIIa/tissue factor-catalysed factor X activation; format: biochemical
T1 construct: purchased American Diagnostica, Inc. (TF); Novo Nordisk A/S (FVIIa)
T1 sequence (P13726 33-295): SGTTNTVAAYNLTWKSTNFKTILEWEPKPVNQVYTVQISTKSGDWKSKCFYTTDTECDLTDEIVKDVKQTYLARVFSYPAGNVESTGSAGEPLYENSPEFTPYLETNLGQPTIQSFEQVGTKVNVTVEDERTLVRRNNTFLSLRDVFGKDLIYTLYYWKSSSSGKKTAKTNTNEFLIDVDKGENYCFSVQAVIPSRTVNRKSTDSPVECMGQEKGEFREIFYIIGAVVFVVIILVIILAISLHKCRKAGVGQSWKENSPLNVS
Protocol: This was determined using a two-stage chromogenic biochemical in vitro assay, essentially as described (A. Kumar et al., 1991, J. Biol. Chem., 266, 915). In short: peptides were pre-incubated with lipidated TF (5 pM; from American Diagnostica, Inc., Greenwich, Conn., USA) and calcium (5 mM) for 10 minutes prior to addition of FVIIa (5 pM; from Novo Nordisk A/S, Gentofte, Denmark) and FX (20 nM; from Enzyme Research Laboratory, South Bend, Ind., USA). Reactions were terminated by addition of EDTA (50 mM) and formation of FXa was monitored using the chromogenic FXa substrate S2765 (0.4 mM; from Chromogenix, Mondal, Sweden) and measuring the absorbance increase at 405 nm in a microtitre plate reader. The concentration for half-maximal inhibition (IC50) was determined from dose-inhibition curves.

[3] = tested on: tissue factor-dependent plasma coagulation; assay: one-stage in vitro tissue factor-dependent plasma coagulation assay; format: biochemical, human; details: end-capped peptide tested up to 1.5 mM
Protocol: A one-stage in vitro coagulation assay was used as follows: peptides dissolved in 3-[N-morpholino]propane-sulphonic acid buffer (100 mM, pH 7.4) and NaCl (100 mM) were premixed with diluted (1:50 in saline) lipidated TF (Thromborel S®, Behringwerke AG, Marburg, Germany) and CaCl2 (5 mM final concentration) and the solutions were kept at 37° C. for 2 minutes. The coagulation reaction was initiated by addition of a thawed aliquot of frozen platelet-free human plasma pool (37° C.). The clotting-time for four replicate incubations were simultaneously determined automatically in an electromagnetic coagulometer (Thrombotrack 4, Nycomed Pharma AS, Oslo, Norway). The mean value for the clotting times determined from the replicate samples were converted to arbitrary TF units by a log-log calibration curve generated with Thromborel.

[4] = solubility in physiological media; format: physicochemical
[5] = molecular target: binding of Factor VII to tissue factor (Homo sapiens, UniProt P13726); details: reported in PCT/GB94/01315; cited from earlier work
Chain of binding of Factor VII to tissue factor (P13726 33-295): as above

[6] = mean±standard deviation, TF 5 pM, FVIIa 5 pM, FX 20 nM, read-out: IC50 (concentration for half-maximal inhibition of FXa formation)
[7] = summary values in the description, read-out: IC50 in the two-stage chromogenic assay of A. Kumar et al.

Compound | effect on thrombus formation [1] | IC50 [2, 6] [µM] | fold lower potency versus disulphide-cyclo-[H-Cys-Glu-Gln-Tyr-Cys-OH] ([2]; same assay) [fold] | IC50 [2, 7] [µM] | effect on clotting time [3] | solubility properties in physiological media [4] | highest testable concentration due to solubility ([4]; coagulation assay buffer) | inhibition of binding of Factor VII to tissue factor [5]
H-YADKIEDTKL-OH [H-Tyr-Ala-Asp-Lys-Ile-Glu-Asp-Thr-Lys-Leu-OH] | no effect |  |  |  |  |  |  | 
CC(=O)N[C@H]1CSSC[C@@H](C(N)=O)NC(=O)[C@H](Cc2ccc(O)cc2)NC(=O)[C@H](CCC(N)=O)NC(=O)[C@H](CCC(=O)O)NC1=O [disulphide-cyclo-[Ac-Cys-Glu-Gln-Tyr-Cys-NH2 ]] (Ac-CEQYC-NH2; disulfide 1-5) |  | 265 ± 174 | 26 | ~200 | without any effect | poor solubility properties | ca. 1.5 mM | negligible
NC(=O)CC[C@@H]1NC(=O)[C@H](CCC(=O)O)NC(=O)[C@@H](N)CSSC[C@@H](C(=O)O)NC(=O)[C@H](Cc2ccc(O)cc2)NC1=O [disulphide-cyclo-[H-Cys-Glu-Gln-Tyr-Cys-OH]] (H-CEQYC-OH; disulfide 1-5) |  | 10.1 ± 5 |  | 10 |  | superior solubility properties; also recorded: freely soluble |  | 
